Assay results as given in patent US20220047687A1, “CHEMICAL SCALPEL” (FUNDACIÓN INSTITUTO DE INVESTIGACIÓN SANITARIA FUNDACIÓN …, priority 2019, published 2022).
“Also recorded” adds a separate entry of the source.

Key:
[1] = tested on: tissue originating from patients with peritoneal carcinomatosis; experiment: In vitro collagenase treatment of patient tumor tissue fragments; type: cell-based, human; settings: for cells released from tissues: culture at 96 hours
Description: After obtaining authorization from the Committee for Research with Medicinal Products (PIC 75/2016_FJD) of Fundación Jiménez Díaz, the tissue originating from patients with peritoneal carcinomatosis who signed the consent was collected. Tissue fragments were included in multiwell plates and treated with 35 U/mL of collagenase for 30 minutes or for a period of 24 hrs, the cultures were then washed and cells obtained from the enzyme treatment were analyzed. The idea was to check at different times if mesothelial cells were obtained alone or tumor cells were obtained as well. FIG. 1.

[2] = tested on: peritoneal carcinomatosis (DHD cells); experiment: Adjusting the dose of collagenase as co-adjuvant in rats with carcinomatosis; type: in vivo, rat; settings: 10 minutes, 37° C.
Description: In this sense, after the inoculation of DHD cells in all the animals, and therefore the induction of solid tumors in the peritoneum (peritoneal carcinomatosis), the optimum dose of collagenase in terms of safety for use thereof as a co-adjuvant for or enhancer of chemotherapy treatment with mitomycin C in various work groups was determined: • Control group: washed only with Ringer's lactate. The mesoderm readily separates and washing is non-hematic. Compact omentum. • Group 1: 370 U/mL of collagenase. Hematic washing liquid, destruction of the omentum and mesoderm. Tumor fragments in the washing liquid. • Group 2: 148 U/mL of collagenase. Slightly hematic washing liquid, readily separable omentum and mesoderm. Solid tumor fragments are observed in the washing liquid. • Group 3: 74 U/mL of collagenase. Non-hematic washing liquid, readily separable omentum and mesoderm. Few implants are observed in the washing liquid but the accessibility of the tumor implants in the mesoderm and omentum is absolute. • Group 4: 37 U/mL of collagenase. Non-hematic washing liquid, readily separable omentum and mesoderm. No tumor implants observed in the washing liquid, but they are seen to be completely exposed in both the mesoderm and omentum.
The surgical procedures during this phase consisted of a first method of peritoneal cancer induction in which DHD cells were injected into the peritoneum and 6-8 weeks were allowed to elapse until the checking for the existence of tumor masses in the peritoneum by means of abdominal palpation, and a second method of treatment in which, after giving the animals inhalation anesthesia, the abdominal cavity was exposed by means of a longitudinal incision of the abdomen, the peritoneal cavity filled with the collagenase solution at the different concentrations to be tested at 37° C.

[3] = tested on: peritoneal carcinomatosis (DHD cells); experiment: Survival and necropsy of rats with carcinomatosis after peritoneal washing (groups D, E, F); type: in vivo, rat; settings: group F, collagenase 37 U/ml, 3 animals
Description: (§1) The procedure was performed 2 times in the TCQ group, the first time with collagenase and after 2 minutes peritoneal washing with mitomycin C at the different concentrations to be tested was repeated. […] Blood was also collected from all the animals before sacrificing them, the blood was processed within the hour following its extraction to obtain plasma and to analyze, on one hand, the existence of the mutated KRAS oncogene (mutation in codon 12 of exon 1 expressed by DHD cells), and on the other hand the existence of collagenase traces or residues in blood after the peritoneal washes. A digital PCR was used for the KRAS oncogene localization study. For the collagenase trace study, the anonymized samples were sent to Lyposmol laboratories for the performance of specific anti-MMP-1 and anti-MMP-2 ELISAS.
Each group initially consisted of 6 rats (2×3).

mutated KRAS oncogene = experiment: Digital PCR of KRAS in plasma; type: in vivo, rat; settings: plasma
Description: as §1
To analyze the presence of mutated KRAS in the blood of the different groups by means of digital PCR, DNA was extracted from at least 2 ml of plasma/group by means of the QlAamp Circulating Nucleic Acid kit according to the manufacturer's data and the results were those listed in Table 4.

MMP-1 = experiment: ELISA for collagenase residues in blood, anti-MMP-1; type: in vivo, rat; settings: after treatment and the follow-up period, all animals
Description: as §1

MMP-2 = experiment: ELISA for collagenase residues in blood, anti-MMP-2; type: in vivo, rat; settings: after treatment and the follow-up period, all animals
Description: as §1

[4] = tested on: peritoneal adhesions (polypropylene mesh); experiment: Peritoneal adhesion model group 1 (10 small polypropylene mesh pieces): mesh release; type: in vivo, rat
Excerpt: Intervention of 5 6-week old Wistar rats of a total of 10 rats belonging to a first group (Group 1). Prior inhalation anesthesia with Forane, the animal being shaved, and aseptic measures being implemented, a minimal opening is made in the skin and the abdominal wall to implant 10 small pieces of polypropylene mesh, five on each side of the midline. They are cut into small 0.5 cm^2 pieces previously wetted with pss (physiological saline solution (0.9% ClNa).
After that (two days later than the first intervention), intervention is performed on the remaining 5 Wistar rats of group 1, and identical follow-up of weight and wound progression, with the administration of analgesia for the next 72 hours.
Four months after the application of the intraperitoneal prostheses, the animals are operated on again for the phase final of the experiment. Before that blood is drawn. First, the experiments are performed on rats belonging to group 1. The study is randomized in pairs and single-blind (investigator). […] Next, the results obtained in each of the operated rats are collected: • 1. R13, 295 g: Dictation: “To the naked eye no meshes are found. At the mesentery and terminal ileum of the cecum there is an area that is folded over and apparently comprises small pieces of mesh. There are no adhesions to the closure of the abdominal wall. Non-traumatic entry.”

peritoneal tissues = experiment: Safety, histology and biochemistry in the adhesion model
Description: The concentration of collagenase used was 0.05% in PBS, with an application time of 20 min, in a volume of 20 ml, and at a temperature of 37° C. in a thermal blanket and with prior tempering of the drug.
Blood was drawn from all the rats by intracardiac puncture for biochemistry and cytokines.

[5] = tested on: peritoneal carcinomatosis (DHD cells); experiment: Phase I fine-tuning of collagenase peritoneal washing on rats with peritoneal carcinomatosis
Description: For the development of the “in vivo” model, carcinomatosis was caused in 6 BDIX rats, treatment was proposed after 4 weeks. The treatment consisted of using different concentrations (370 U/mL, 2×148 U/mL, 74 U/mL, 37 U/mL, 0) of collagenase by means of peritoneal washing and it was performed in an open system by means of using a perfusion pump on 3 animals and without using any perfusion pump on 3 other animals (FIG. 3). […] The method for peritoneal washing consisted of, after giving the animals inhalation anesthesia, exposing the abdominal cavity with a longitudinal incision and filling the peritoneal cavity with collagenase diluted to the different concentrations mentioned above. Continuous washing of the peritoneum (only with Ringer's lactate) was then performed; the animals were chosen randomly in each case and treatment lasted for 10 minutes in all the animals.
Washed tissue samples as well as organs were collected for histological studies in all cases (FIG. 4).

Collagenase
effect of collagenase on tumor tissues in vitro ([1]; 35 U/mL): breaks the edges of the tissues, releasing mesothelial cells and limiting tumor vascularization | enzyme time beyond which tissues become damaged and viability of extracted cells is inhibited ([1]; in vitro): exceeding 45 minutes | cells released from tissues ([1]; tissues digested for 30 minutes): mesothelial cells released by collagenase | cells released from tissues ([1]; tissues digested for 24 hours): release of cells with tumor morphology and highly refringent mesothelial cells | washing liquid, omentum, mesoderm and tumor implants after washing ([2]; Group 1: 370 U/mL): Hematic washing liquid, destruction of the omentum and mesoderm. Tumor fragments in the washing liquid. | washing liquid, omentum, mesoderm and tumor implants after washing ([2]; Group 2: 148 U/mL): Slightly hematic washing liquid, readily separable omentum and mesoderm. Solid tumor fragments are observed in the washing liquid. | washing liquid, omentum, mesoderm and tumor implants after washing ([2]; Group 3: 74 U/mL): Non-hematic washing liquid, readily separable omentum and mesoderm. Few implants are observed in the washing liquid but the accessibility of the tumor implants in the mesoderm and omentum is absolute. | washing liquid, omentum, mesoderm and tumor implants after washing ([2]; Group 4: 37 U/mL): Non-hematic washing liquid, readily separable omentum and mesoderm. No tumor implants observed in the washing liquid, but they are seen to be completely exposed in both the mesoderm and omentum. | Observations (necropsy) ([3]; 1 month): Localized carcinomatoses in intestine; also recorded: No adhesions | Observations (necropsy) ([3]; 2 months): Localized carcinomatoses in abdomen; also recorded: with nodules in liver. No adhesions | Mutated KRAS event no. (mutated KRAS oncogene; group A (healthy rats, collagenase 37 U/mL)): 0 | Mutated KRAS event no. (mutated KRAS oncogene; group F (DHD + collagenase 37 U/mL)): 1 | collagenase residues in blood, MMP-1 ELISA (MMP-1): negative | collagenase residues in blood, MMP-2 ELISA (MMP-2): negative | mesh and adhesion release after washing (dictation) ([4]; 0.05% in PBS, 20 ml, 20 minutes, 37° C., single rats R11, R12, R17, R18, R19 in block order): one of the balls of hypochondrium loops breaks up with slight pulling and several pieces of mesh (3) are released; also recorded: mesh seen in the omentum is readily released with slight pulling. Another mesh in the suprapubic fat is dissected and released without damaging the fatty aggregate, 6 pieces of mesh being released with digital dissection and without bleeding; also recorded: One of the meshes contained in the ball of the terminal ileum separates completely with slight pulling; also recorded: Mesh separates from the hepatic omentum with slight pulling (there are two meshes, one of them is not readily separated successfully) | efficacy in extracting meshes ([4]; group 1, blind study randomized in pairs, 0.05%, PBS control 8%): 42% | release of adhesions (final conclusion) (peritoneal tissues; 37 mg/Kg for 20 minutes at 37° C. as a peritoneal washing, murine model): favors the release of adhesions | other relevant finding upon application of the treatment (peritoneal tissues; 0.05% in PBS, 20 min, 20 ml, 37° C.): pancreatic reaction | safety of intraperitoneal application (peritoneal tissues; 0.05%, vigorous washing at 37° C. for 20 minutes, murine model): safe for intraperitoneal application in a murine model, without associated mortality | analysis of the models at euthanasia, drug vs PBS (peritoneal tissues; 2 months after the use of drug or PBS): did not show any significant differences; also recorded: fewer adhesions did subjectively appear | histological study of tissues (peritoneal tissues; animals with small or large meshes, peritoneal washing with collagenase): are not affected | amylase (peritoneal tissues; both study groups): increases in both study groups | biochemical or hematologic parameters (peritoneal tissues; serial tests, immediately and at different points of control after the intervention): without finding significant differences with the control groups | Macroscopic observations ([5]; animal ID 1, 35 U/ml, PCI 13): All rather hematic. Implants | Macroscopic observations ([5]; animal ID 2, 8.75 U/ml, PCI 10, pump not used): Pump is not used. Implants do | Macroscopic observations ([5]; animal ID 3, 35 U/ml, PCI 2): Mesoderm readily separates. | Macroscopic observations ([5]; animal ID 5, 87.5 U/ml, PCI 10): All hematic. Omentum, | follow-up of the only animal left alive after treatment ([5]; rat, in vivo): showed no impairments or pain
